For test [1], the system named is Phosphorylation of ERK1/2 in AsPC-1 cells. The experiment in a line: Phospho-ERK1/2 MSD Assay. The format is cell-based. The settings on record: Homo sapiens, ASPC1, 2 h, read-out: 2 h p-ERK (AsPC-1 cells), IC50, AsPC-1 cells, 2 h compound treatment. How it is done:
Sixteen hours prior to compound treatment, AsPC-1 cells were seeded in 96-well cell culture plates at a density of 25,000 cells/well and incubated at 37° C., 5% CO2. A compound dose-response titration was diluted in growth media, added to appropriate wells of a cell culture plate, and then incubated at 37° C., 5% CO2 for 2 hours.

The target of test [2] is His-tagged KRAS G12D protein (Homo sapiens, UniProt P01116, G12D). The experiment in a line: biochemical.
Protocol: The plate was incubated for 30 minutes at room temperature. Biotinylated KRPep-2d substrate (Amgen) was diluted to nM in Assay Buffer and 2 μL was added to all wells and incubated for 1 hour at room temperature. Detection Reagent (0.4 nM LANCE Eu-W1024 Anti-6×His (Perkin Elmer AD0401), 5 nM streptavidin-d2 (Cisbio 610SADLA)) was prepared in Assay Buffer, then 4 µL was added to the plate and incubated for 1 hour at room temperature.

The record followed here is patent publication US20250034167A1, “HETEROCYCLIC COMPOUNDS AND METHODS OF USE” (AMGEN INC., priority 2021, published 2025).

Where only a bound is given, the exact number is not on record here.

Chain of His-tagged KRAS G12D protein (P01116 1-188 isoform P01116-2 G12D): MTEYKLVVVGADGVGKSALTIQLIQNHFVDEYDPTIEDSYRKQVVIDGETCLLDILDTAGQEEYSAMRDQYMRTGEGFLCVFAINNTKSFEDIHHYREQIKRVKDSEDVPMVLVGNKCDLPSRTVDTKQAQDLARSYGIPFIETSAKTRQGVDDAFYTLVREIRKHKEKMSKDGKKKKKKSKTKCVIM

For the compound `CCc1c(F)ccc2cc(O)cc(-c3ncc4c(N5CCCC(C(=O)NC)C5)nc(OC[C@@]56CCCN5C[C@H](F)C6)nc4c3F)c12` (stereo partly drawn) [Example 89, 1-(7-(8-Ethyl-7-fluoro-3-hydroxynaphthalen-1-yl)-8-fluoro-2-(((2R,7aS)-2-fluorotetrahydro-1H-pyrrolizin-7a(5H)-yl)methoxy)pyrido[4,3-d]pyrimidin-4-yl)-N-methylpiperidine-3-carboxamide], the IC50 in test [1] is above 3000 nM; in test [2], 9 nM.

Consider `CCc1c(F)ccc2cc(O)cc(-c3ncc4c(N5CC(C)(O)C5)nc(OC[C@@]56CCCN5C[C@H](F)C6)nc4c3F)c12` [Example 92, 1-(7-(8-Ethyl-7-fluoro-3-hydroxynaphthalen-1-yl)-8-fluoro-2-(((2R,7aS)-2-fluorotetrahydro-1H-pyrrolizin-7a(5H)-yl)methoxy)pyrido[4,3-d]pyrimidin-4-yl)-3-methylazetidin-3-ol], for which the figures for the IC50 in test [1] and in test [2] were 6620 nM and 83 nM, respectively.

Turning to `CCc1c(F)ccc2cc(O)cc(-c3ncc4c(N5CCCCCCC5)nc(OC[C@@]56CCCN5C[C@H](F)C6)nc4c3F)c12` [Example 93, 4-(4-(Azocan-1-yl)-8-fluoro-2-(((2R,7aS)-2-fluorotetrahydro-1H-pyrrolizin-7a(5H)-yl)methoxy)pyrido[4,3-d]pyrimidin-7-yl)-5-ethyl-6-fluoronaphthalen-2-ol], the IC50 in test [1] amounted to 100 nM; in test [2], 2 nM.

In the case of `CCc1c(F)ccc2cc(O)cc(-c3ncc4c(N5CC6CCC(C5)C6O)nc(OC[C@@]56CCCN5C[C@H](F)C6)nc4c3F)c12` (stereo partly drawn) [Example 97, 3-(7-(8-Ethyl-7-fluoro-3-hydroxynaphthalen-1-yl)-8-fluoro-2-(((2R,7aS)-2-fluorotetrahydro-1H-pyrrolizin-7a(5H)-yl)methoxy)pyrido[4,3-d]pyrimidin-4-yl)-3-azabicyclo[3.2.1]octan-8-ol], the IC50 turned out to be 1560 nM in test [1] and 33 nM in test [2].

For `CCc1c(F)ccc2cc(O)cc(-c3ncc4c(N5CC6CCC(C5)C6(C)O)nc(OC[C@@]56CCCN5C[C@H](F)C6)nc4c3F)c12` (stereo partly drawn) [Example 98, 3-(7-(8-Ethyl-7-fluoro-3-hydroxynaphthalen-1-yl)-8-fluoro-2-(((2R,7aS)-2-fluorotetrahydro-1H-pyrrolizin-7a(5H)-yl)methoxy)pyrido[4,3-d]pyrimidin-4-yl)-8-methyl-3-azabicyclo[3.2.1]octan-8-ol], the IC50 came out at 2840 nM in test [1] and 80 nM in test [2].

As to `CCc1c(F)ccc2cc(O)cc(-c3ncc4c(N5CCC6CC6(O)C5)nc(OC[C@@]56CCCN5C[C@H](F)C6)nc4c3F)c12` (stereo partly drawn) [Example 99, 3-(7-(8-Ethyl-7-fluoro-3-hydroxynaphthalen-1-yl)-8-fluoro-2-(((2R,7aS)-2-fluorotetrahydro-1H-pyrrolizin-7a(5H)-yl)methoxy)pyrido[4,3-d]pyrimidin-4-yl)-3-azabicyclo[4.1.0]heptan-1-ol], the results for the IC50 in test [1] and in test [2] were 794 nM and 11 nM, respectively.

Consider `CCc1c(F)ccc2cc(O)cc(-c3ncc4c(N5C[C@H](O)C[C@@H](O)C5)nc(OC[C@@]56CCCN5C[C@H](F)C6)nc4c3F)c12` [Example 102, (3R,5R)-1-(7-(8-Ethyl-7-fluoro-3-hydroxynaphthalen-1-yl)-8-fluoro-2-(((2R,7aS)-2-fluorotetrahydro-1H-pyrrolizin-7a(5H)-yl)methoxy)pyrido[4,3-d]pyrimidin-4-yl)piperidine-3,5-diol], for which the IC50 in test [1] is 1900 nM; in test [2], 2 nM.

For `CCc1c(F)ccc2cc(O)cc(-c3ncc4c(N5CC6CCC(C6)C5)nc(OC[C@@]56CCCN5C[C@H](F)C6)nc4c3F)c12` [Example 105, 4-(4-(3-Azabicyclo[3.2.1]octan-3-yl)-8-fluoro-2-(((2R,7aS)-2-fluorotetrahydro-1H-pyrrolizin-7a(5H)-yl)methoxy)pyrido[4,3-d]pyrimidin-7-yl)-5-ethyl-6-fluoronaphthalen-2-ol], the IC50 in test [1] was found to be 939 nM; in test [2], 9 nM.

With `CCc1c(F)ccc2cc(O)cc(-c3ncc4c(N5C[C@H](O)[C@@H](O)C5)nc(OC[C@@]56CCCN5C[C@H](F)C6)nc4c3F)c12` [Example 117, (3S,4S)-1-(7-(8-Ethyl-7-fluoro-3-hydroxynaphthalen-1-yl)-8-fluoro-2-(((2R,7aS)-2-fluorotetrahydro-1H-pyrrolizin-7a(5H)-yl)methoxy)pyrido[4,3-d]pyrimidin-4-yl)pyrrolidine-3,4-diol], the IC50 in test [1] is above 10000 nM; in test [2] it was 9 nM.

Turning to `CCc1c(F)ccc2cc(O)cc(-c3ncc4c(N5CC(O)CC(F)(F)C5)nc(OC[C@@]56CCCN5C[C@H](F)C6)nc4c3F)c12` (stereo partly drawn) [Example 118, 1-(7-(8-Ethyl-7-fluoro-3-hydroxynaphthalen-1-yl)-8-fluoro-2-(((2R,7aS)-2-fluorotetrahydro-1H-pyrrolizin-7a(5H)-yl)methoxy)pyrido[4,3-d]pyrimidin-4-yl)-5,5-difluoropiperidin-3-ol], the IC50 worked out at 105 nM in test [1] and 3 nM in test [2].

Regarding `CCc1c(F)ccc2cc(O)cc(-c3ncc4c(N5CCC(O)C(F)(F)CC5)nc(OC[C@@]56CCCN5C[C@H](F)C6)nc4c3F)c12` (stereo partly drawn) [Example 120, 1-(7-(8-Ethyl-7-fluoro-3-hydroxynaphthalen-1-yl)-8-fluoro-2-(((2R,7aS)-2-fluorotetrahydro-1H-pyrrolizin-7a(5H)-yl)methoxy)pyrido[4,3-d]pyrimidin-4-yl)-5,5-difluoroazepan-4-ol], the IC50 in test [1] was 222 nM; in test [2] it was 4 nM.

As for `CCc1c(F)ccc2cc(O)cc(-c3ncc4c(N5CCC[C@@H](C(=O)OC)C5)nc(OC[C@@]56CCCN5C[C@H](F)C6)nc4c3F)c12` [Example 126, Methyl (R)-1-(7-(8-ethyl-7-fluoro-3-hydroxynaphthalen-1-yl)-8-fluoro-2-(((2R,7aS)-2-fluorotetrahydro-1H-pyrrolizin-7a(5H)-yl)methoxy)pyrido[4,3-d]pyrimidin-4-yl)piperidine-3-carboxylate], the IC50 in test [1] came out at 3340 nM; in test [2], 37 nM.

Take `CCc1c(F)ccc2cc(O)cc(-c3ncc4c(N5CCCC[C@@H](O)C5)nc(OC[C@@]56CCCN5C[C@H](F)C6)nc4c3F)c12` [Example 129, (R)-1-(7-(8-Ethyl-7-fluoro-3-hydroxynaphthalen-1-yl)-8-fluoro-2-(((2R,7aS)-2-fluorotetrahydro-1H-pyrrolizin-7a(5H)-yl)methoxy)pyrido[4,3-d]pyrimidin-4-yl)azepan-3-ol]: the figures for the IC50 in test [1] and in test [2] were 64 nM and 1 nM, respectively.

For `CCc1c(F)ccc2cc(O)cc(-c3ncc4c(N5CCCC[C@@H](NC(=O)C(F)F)C5)nc(OC[C@@]56CCCN5C[C@H](F)C6)nc4c3F)c12` [Example 132, N-((R)-1-(7-(8-Ethyl-7-fluoro-3-hydroxynaphthalen-1-yl)-8-fluoro-2-(((2R,7aS)-2-fluorotetrahydro-1H-pyrrolizin-7a(5H)-yl)methoxy)pyrido[4,3-d]pyrimidin-4-yl)azepan-3-yl)-2,2-difluoroacetamide], the IC50 in test [1] was found to be 119 nM; in test [2] it was 1 nM.

For the compound `CCc1c(F)ccc2cc(O)cc(-c3ncc4c(N5CCCC[C@@H](NC(C)=O)C5)nc(OC[C@@]56CCCN5C[C@H](F)C6)nc4c3F)c12` [Example 133, N-((R)-1-(7-(8-Ethyl-7-fluoro-3-hydroxynaphthalen-1-yl)-8-fluoro-2-(((2R,7aS)-2-fluorotetrahydro-1H-pyrrolizin-7a(5H)-yl)methoxy)pyrido[4,3-d]pyrimidin-4-yl)azepan-3-yl)acetamide], the IC50 in test [1] was 661 nM; in test [2], 2 nM.

Regarding `CCc1c(F)ccc2cc(O)cc(-c3ncc4c(N5CCC=CC(O)C5)nc(OC[C@@]56CCCN5C[C@H](F)C6)nc4c3F)c12` (stereo partly drawn) [Example 135, 1-(7-(8-Ethyl-7-fluoro-3-hydroxynaphthalen-1-yl)-8-fluoro-2-(((2R,7aS)-2-fluorotetrahydro-1H-pyrrolizin-7a(5H)-yl)methoxy)pyrido[4,3-d]pyrimidin-4-yl)-2,3,6,7-tetrahydro-1H-azepin-3-ol], the IC50 in test [1] came to 81 nM; in test [2], 1 nM.

On to `CCc1c(F)ccc2cc(O)cc(-c3ncc4c(N5CCC[C@@H](C(=O)O)C5)nc(OC[C@@]56CCCN5C[C@H](F)C6)nc4c3F)c12` [Example 138, (R)-1-(7-(8-Ethyl-7-fluoro-3-hydroxynaphthalen-1-yl)-8-fluoro-2-(((2R,7aS)-2-fluorotetrahydro-1H-pyrrolizin-7a(5H)-yl)methoxy)pyrido[4,3-d]pyrimidin-4-yl)piperidine-3-carboxylic acid], for which the IC50 in test [1] was above 10000 nM; in test [2] it was 16 nM.

Take `CCc1c(F)ccc2cc(O)cc(-c3ncc4c(N5CCC=CCC5)nc(OC[C@@]56CCCN5C[C@H](F)C6)nc4c3F)c12` [Example 139, 5-Ethyl-6-fluoro-4-(8-fluoro-2-(((2R,7aS)-2-fluorotetrahydro-1H-pyrrolizin-7a(5H)-yl)methoxy)-4-(2,3,6,7-tetrahydro-1H-azepin-1-yl)pyrido[4,3-d]pyrimidin-7-yl)naphthalen-2-ol]: the IC50 was found to be 116 nM in test [1] and 5 nM in test [2].

Regarding `CCc1c(F)ccc2cc(O)cc(-c3ncc4c(N5C[C@H](N)CC(F)(F)C5)nc(OC[C@@]56CCCN5C[C@H](F)C6)nc4c3F)c12` [Example 140, 4-(4-((R)-5-Amino-3,3-difluoropiperidin-1-yl)-8-fluoro-2-(((2R,7aS)-2-fluorotetrahydro-1H-pyrrolizin-7a(5H)-yl)methoxy)pyrido[4,3-d]pyrimidin-7-yl)-5-ethyl-6-fluoronaphthalen-2-ol], the IC50 in test [1] worked out at 81 nM; in test [2] it was 3 nM.
